Values quoted from earlier work in patent US11123293B2, “Liposomal formulation for joint lubrication” (MOEBIUS MEDICAL LTD., priority 2017, dated 2021).
Several values for one entry are separate records, joined by “and”; a condition that tells them apart may be missing. Equal entries are not always repeated. Where two headings read alike, the source gives them in different places.

Assays:
[1] = pure phospholipid, literature value
[2] = tested on: joints of OA patients; conditions: injection into joints of OA patients, without major side effects
[3] = tested on: rabbit's knee; conditions: solution, intra-articular injection into a rabbit's knee

Structure (SMILES)	Tm [1]	further results
CCCCCCCCCCCCCCC(=O)OC[C@H](COP(=O)([O-])OCC[N+](C)(C)C)OC(=O)CCCCCCCCCCCCCC [1,2-dipentadecanoyl-sn-glycero-3-phosphocholine]	33.0 °C	–
CCCCCCCCCCCCC/C=C/[C@@H](O)[C@H](COP(=O)([O-])OCC[N+](C)(C)C)NC(=O)CCCCCCCCCCCCCCC [D-erythro C16, N-palmitoyl-D-erythro-sphingosylphosphorylcholine]	41.0 °C	Tm ([1]; listed as N-palmitoyl SM): 41 °C
CCCCCCCCCCCCCC(=O)OC[C@H](COP(=O)([O-])OCC[N+](C)(C)C)OC(=O)CCCCCCCCCCCCC [DMPC, 1,2-dimyristoyl-sn-glycero-3-phosphocholine]	23 °C and ~24 °C	–
CCCCCCCCCCCCCC(=O)OC[C@H](COP(=O)(O)OCC(O)CO)OC(=O)CCCCCCCCCCCCC (some centres unmarked) [DMPG, 1,2-dimyristoyl-sn-glycero-3-phosphorylglycerol]	23 °C	–
CCCCCCCCCCCCCCCC(=O)OC[C@H](COP(=O)([O-])OCC[N+](C)(C)C)OC(=O)CCCCCCCCCCCCCCC [DPPC, 1,2-dipalmitoyl-sn-glycero-3-phosphocholine]	41 °C and 41.4 °C	mobility improvement lasting [2]: up to 14 weeks
CCCCCCCCCCCCCCCC(=O)OC[C@H](COP(=O)(O)OCC(O)CO)OC(=O)CCCCCCCCCCCCCCC (some centres unmarked) [DPPG, 1,2-dipalmitoyl-sn-glycero-3-phosphorylglycerol]	41 °C	–
CCCCCCCCCCCCCCCCCC(=O)OC[C@H](COP(=O)([O-])OCC[N+](C)(C)C)OC(=O)CCCCCCCCCCCCCCCCC [DSPC, 1,2-distearoyl-sn-glycero-3-phosphocholine]	55 °C	–
OCC(O)CO [glycerol]	–	prevention of joint irritation [3]: did not prevent irritation
OC[C@@H](O)[C@@H](O)[C@H](O)[C@H](O)CO [mannitol]	–	prevention of joint irritation [3]: did not prevent irritation
